Laboratory results taken from US20050107451A1, “Methods for treating conditions, disorders, or diseases involving cell death” (priority 2001, published 2005).
“And” between values parts separate entries of the source, which are not always exact repeats. Equal entries are not always repeated. Where two headings read alike, the source gives them in different places.

Tested on: neurons in brain slices
Type: cell-based
Conditions: for NON-STROKE AVERAGE / surviving neurons, NON-STROKE: non-stroke brain slice; for NON-STROKE AVERAGE / STROKE AVG. / surviving neurons, STROKE / surviving neurons, NON-STROKE: 24 hrs exposure; for NON-STROKE AVERAGE / STROKE AVG.: average neuron count; for STROKE AVG. / surviving neurons, STROKE: stroke brain slice; for surviving neurons, STROKE / surviving neurons, NON-STROKE: single count; for neuroprotective properties: stroke and non-stroke brain slices, result in words
Description: A negative and positive control experiments were also run for comparison. In the positive control, a known neuroprotective gene and reporter gene (i.e., a green fluorescent protein) were shot into the stroke and non-stroke brain slices. In the negative control, only the reporter gene (i.e., a green fluorescent protein) was shot into the stroke and non-stroke brain slices. […]
A negative and positive control experiments were also run for comparison as described above for Example 1. […]
Two sets of brain slices were transfected with a plasmid containing a reporter gene (e.g. a green fluorescent protein). […] One of the sets of brain slices was treated under conditions to simulate stroke, and the other brain slice was a non-stroke control. Survival of neurons in the brain slices, as indicated by expression of the reporter molecule, was examined by direct neuron counts after 24 hrs. exposure to the compound.

`CC=C(C)C(=O)OC1CCC2(C)C3CCC4[C@]5(O)CC(O)[C@@]6(O)C(CN7CC(C)CCC7[C@@]6(C)O)[C@]5(O)C[C@@]42O[C@]13O` (stereo partly drawn) [Cevadine, (Z)-4α,9-Epoxycevane-3β,4,12,14,16β,17,20-heptol 3-(2-methyl-2-butenoate)] was tested, and the “NON-STROKE AVERAGE” value (0.781 uM) was 26.25, the “STROKE AVG.” value (0.781 uM) was 9.5 and the “NON-STROKE AVERAGE” value (1.562 uM) was 33.2. The “STROKE AVG.” value (1.562 uM) was 9, the “NON-STROKE AVERAGE” value (3.125 uM) was 25.6 and the “STROKE AVG.” value (3.125 uM) was 6.4. The “surviving neurons, STROKE” value (3.125 uM) was 9 neurons and 5 neurons and 6 neurons and 7 neurons, the “NON-STROKE AVERAGE” value (6.25 uM) was 27 and the “STROKE AVG.” value (6.25 uM) was 8.6. For the same molecule, the “NON-STROKE AVERAGE” value (12.5 uM) was 64, the “STROKE AVG.” value (12.5 uM) was 38.5 and the “NON-STROKE AVERAGE” value (25 uM) was 93.6. The “STROKE AVG.” value (25 uM) was 126, the “NON-STROKE AVERAGE” value (50 uM) was 118 and the “STROKE AVG.” value (50 uM) was 86.6. For the same molecule, the “NON-STROKE AVERAGE” value (100 uM) was 73, the “STROKE AVG.” value (100 uM) was 70 and the “surviving neurons, STROKE” value (100 uM) was 53 neurons and 78 neurons and 77 neurons and 56 neurons and 86 neurons. For the same molecule, the neuroprotective properties was “exhibits neuroprotective properties”.
With `COC1C(O)[C@H](O[C@H]2CC[C@]3(C)C4CC[C@]5(C)C(C6=CC(=O)OC6)CC[C@]5(O)C4CC[C@@H]3C2)OC(C)[C@@H]1O` (stereo partly drawn) [Neriifolin, (3β,5β)-3-[(6-Deoxy-3-O-methyl-α-L-glucopyranosyl)oxyl]-14-hydroxycard-20(22)-enolide] the “NON-STROKE AVERAGE” value (0.781 uM) was 35, the “STROKE AVG.” value (0.781 uM) was 6.4 and the “NON-STROKE AVERAGE” value (1.562 uM) was 30.4. The “STROKE AVG.” value (1.562 uM) was 10, the “NON-STROKE AVERAGE” value (3.125 uM) was 48.2 and the “STROKE AVG.” value (3.125 uM) was 5.8. The “NON-STROKE AVERAGE” value (6.25 uM) was 61, the “STROKE AVG.” value (6.25 uM) was 19.8 and the “NON-STROKE AVERAGE” value (12.5 uM) was 29.75. For the same molecule, the “STROKE AVG.” value (12.5 uM) was 36.25, the “NON-STROKE AVERAGE” value (25 uM) was 60.2 and the “surviving neurons, NON-STROKE” value (25 uM) was 49 neurons and 66 neurons and 82 neurons and 42 neurons and 62 neurons. For the same molecule, the “STROKE AVG.” value (25 uM) was 43.4, the “NON-STROKE AVERAGE” value (50 uM) was 32.2 and the “STROKE AVG.” value (50 uM) was 17.6. The “NON-STROKE AVERAGE” value (100 uM) was 15.6, the “STROKE AVG.” value (100 uM) was 10.6 and the neuroprotective properties was “exhibits neuroprotective properties”.
In the case of `O=C1O[C@H]([C@@H](O)CO)C([O-])=C1O.[Na+]` [Sodium Ascorbate, Sodium ascorbate, reference compound], the “NON-STROKE AVERAGE” value (0.3125 uM) was 9.5, the “STROKE AVG.” value (0.3125 uM) was 2.5 and the “NON-STROKE AVERAGE” value (0.625 uM) was 12.5. The “STROKE AVG.” value (0.625 uM) was 0.5, the “NON-STROKE AVERAGE” value (1.25 uM) was 10.5 and the “STROKE AVG.” value (1.25 uM) was 0.5. For the same molecule, the “NON-STROKE AVERAGE” value (2.5 uM) was 8, the “STROKE AVG.” value (2.5 uM) was 0.5 and the “NON-STROKE AVERAGE” value (5 uM) was 19.5. The “STROKE AVG.” value (5 uM) was 1, the “NON-STROKE AVERAGE” value (10 uM) was 15.5 and the “STROKE AVG.” value (10 uM) was 2. The “NON-STROKE AVERAGE” value (25 uM) was 12.5, the “STROKE AVG.” value (25 uM) was 0.5 and the “NON-STROKE AVERAGE” value (50 uM) was 10. The “STROKE AVG.” value (50 uM) was 2, the “NON-STROKE AVERAGE” value (100 uM) was 2.5 and the neuroprotective properties was “did not exhibit neuroprotective properties”.
`NC(C(=O)O)c1nnn[nH]1` (racemic) [(RS)-(Tetrazol-5-yl)glycine] was tested, and the “NON-STROKE AVERAGE” value (0.781 uM) was 25.6, the “STROKE AVG.” value (0.781 uM) was 13.2 and the “NON-STROKE AVERAGE” value (1.562 uM) was 28.8. For the same molecule, the “STROKE AVG.” value (1.562 uM) was 17.2, the “NON-STROKE AVERAGE” value (3.125 uM) was 50.4 and the “STROKE AVG.” value (3.125 uM) was 28.2. For the same molecule, the “NON-STROKE AVERAGE” value (6.25 uM) was 94.8, the “STROKE AVG.” value (6.25 uM) was 58.8 and the “NON-STROKE AVERAGE” value (12.5 uM) was 65.2. For the same molecule, the “surviving neurons, NON-STROKE” value (12.5 uM) was 71 neurons and 61 neurons and 75 neurons and 56 neurons and 63 neurons, the “STROKE AVG.” value (12.5 uM) was 56.6 and the “NON-STROKE AVERAGE” value (25 uM) was 78. For the same molecule, the “STROKE AVG.” value (25 uM) was 53.2, the “NON-STROKE AVERAGE” value (50 uM) was 68.8 and the “STROKE AVG.” value (50 uM) was 89. The “NON-STROKE AVERAGE” value (100 uM) was 73.6, the “surviving neurons, NON-STROKE” value (100 uM) was 72 neurons and 87 neurons and 64 neurons and 62 neurons and 83 neurons and the “STROKE AVG.” value (100 uM) was 79.6. For the same molecule, the “surviving neurons, STROKE” value (100 uM) was 95 neurons and 76 neurons and 87 neurons and 66 neurons and 74 neurons and the neuroprotective properties was “exhibits neuroprotective properties”.
